Data on one compound can be found in EPA's ToxValDB 9.5 (doi:10.2903/j.efsa.2018.5429).

Converted amounts (≈) assume the structure as drawn. A value given as a limit tells only on which side of the number the result lay.

The test system of data set [1] is Anas platyrhynchos. As to conditions: reproductive.
In data set [2] the test system is Apis mellifera. The conditions noted are these: acute, duration: 48 hours, mortality.
In data set [3] the test system is Canidae. The conditions noted are these: subchronic; duration: 90 days; oral; Dog Other; clinical signs.
Data set [4] has as its system Coturnix japonica. The conditions noted are these: acute; oral; mortality.
Data set [5] has as its system Daphnia magna. The conditions noted are these: chronic/long-term; duration: 21 days; reproduction.
In data set [6] the test system is Hypoaspis aculeifer. As to conditions: acute; duration: 14 days.
The test system of data set [7] is Lepomis macrochirus. The conditions noted are these: acute; duration: 96 hours; mortality.
The test system of data set [8] is Oncorhynchus mykiss. The conditions noted are these: chronic/long-term; duration: 56 days; behavior.
Data set [9] has as its system Rattus norvegicus. The conditions noted are these: for NOAEL: reproduction developmental.
The test system of data set [10] is Tagia sp. The conditions noted are these: chronic/long-term; duration: 56 days; body weight.
Data set [11] concerns Aphidius rhopalosiphi. Kind of data set: LR50; higher = less toxic. As to conditions: not reported; mortality.

A word on the NOAEL: it is the highest tested level that showed no adverse finding. The LC50 is the concentration lethal to half of the exposed cells or organisms. For the compound `CNC(=O)Oc1cc(C)c(SC)c(C)c1` [Methiocarb], the NOAEL in [1] came out at 4.51 mg/kg-day; in data set [3], 0.25 mg/kg-day; in data set [9] (body weight), 4.3 mg/kg-day; in data set [9] (clinical signs), 0.5 mg/kg-day. Besides, the LD50 in [2] (dermal) is 0.23 µg/piece; in [2] (oral, unspecified), 0.08 µg/piece; in data set [4] it was 5 mg/kg-day; in data set [9] (acute, oral, mortality), less than 50 mg/kg-day. The NOEC in data set [5] was 0.0001 mg/L; in data set [6], 10.1 mg/kg; in data set [8], 0.05 mg/L; in data set [10], 0.08 mg/kg. In [7], this compound displayed an LC50 of 0.65 µg/mL (≈ 2.88 µM). In data set [11], this compound displayed an LR50 of 8.5 g/ha.
